Reference: PMC11500415, “Chemical inhibition of stomatal differentiation by perturbation of the master-regulatory bHLH heterodimer via an ACT-Like domain” (Nature Communications, 2024)
Values joined by “and” are separate entries in the source; they are usually repeats but may differ in a detail not shown here. Equal entries are not always repeated. “Also recorded” adds a separate entry of the source.

Legend:
[1] = Stability in aqueous conditions by LC/MS; assay type: physicochemical
Experimental: Next, to directly address the stability of Stomidazolone in the aqueous condition we used for our bioassays, we performed liquid chromatography-mass spectrometry (LC/MS) (Supplementary Fig. 4). Stomidazolone was incubated in the 1/2 MS liquid medium (pH 5.7) at room temperature for 48 hours. […] Additionally, we tested Stomidazolone’s stability in phosphate buffer (pH 7.0).
Stomidazolone in 1/2 MS liquid media (pH 5.7) or phosphate buffer (pH 7.0) was detected by LC (Agilent 1200, Agilent Technologies, Santa Clara, USA) coupled to a single quadrupole mass spectrometer (Agilent 6130) equipped with an APCI-ES source. For the stability assay of Stomidazolone, the analytical samples were prepared as follows: 100 μL 5 mM Stomidazolone in DMSO was diluted with 900 μL 1/2MS (pH5.7) or 50 mM Phosphate buffer (pH 7.0). The Stomidazolone solutions were incubated at room temperature with rotating. At 0 or 48 hr after incubation, the 10 μL of solution were collected, diluted with water: acetonitrile;= 50:50, and applied to LC/MS. […] The mobile phase consisted of 5 mM ammonium formate: acetonitrile = 80:20 at a flow rate of 0.6 mL/min. in isocratic mode, and detected by mass spectrometry (MS). […] The electrospray ionization mass spectra (ESI-MS) recorded in the mass-to-charge ratio range from m/z 80–1000 was collected. […]

[2] = system: Arabidopsis WT seedlings on solid MS media; assay: Stomatal development bioassay on solid media; assay type: in vivo; details: for MI (%) meristemoid index / SI (%) stomatal index: solid culture, cotyledon abaxial epidermis, individual seedlings
Experimental: Arabidopsis accession Columbia (Col-0) was used as wild-type. […] Their genotype and transcript reduction were confirmed. The presence of transgenes/mutant alleles were confirmed by genotyping. For liquid culture with Stomidazolone (AYSJ929, compound 3), the analogs (AYSJ1059 (compound 5) and AYSJ1061 (compound 6)), degraded compound lzx103 (compound 4), and SIM3* (compound 7), all compounds were dissolved in dimethyl sulfoxide (DMSO, Molecular biology grade, Fujifilm Wako, Japan 046-21981), Col-0 seeds were sown in 96-well plates (TL5003; True Line) containing 95 μL of 1/2 MS media containing 0.5% sucrose with rotary shaking at 140 rpm under continuous light at 22 °C. Five μL of compounds were dissolved in DMSO at 10 mM and diluted with liquid 1/2 MS media to 1 mM and added on 1-day-old seedlings (final concentration, 50 μM). Seedlings were incubated for 8 days, and at day 9 seedling abaxial cotyledons were observed through confocal microscopy. For liquid culture of scrm-D_S343 and scrm-D_S423, 1/2 MS liquid media without sucrose was used. For the solid culture, 0, 20, 50 or 100 μM Stomidazolone were solidified with low-melting agarose (5805S, PrimeGelTM Agarose LMT 1-20 K, TAKARA Bio). Briefly, 1/2 MS salt, 0.5% sucrose, and 0.8% low melting agarose were mixed in water and autoclaved. After cooling the medium at around 30 °C, Stomidazolone (500x, dissolved in DMSO) was added and poured into 90 mm petri dishes (Asnol Petri Dish JP φ90 x 15 mm, 3-1491-01, AS ONE). Col-0 seeds were sown on Stomidazolone-containing 1/2 MS agarose media and grown under continuous light for 9 days.
For quantitative analysis of the abaxial leaf epidermis, confocal images were taken on the days after germination as indicated in the Figure legends. Preparation of images was done as described previously[32],[70]. For counting epidermal cell types, stomatal density, stomatal precursor cells (meristemoids), total stomata-lineage cells (stomata and meristemoids) were calculated by counting cell types in an area of 0.4 mm^2 (0.63 mm × 0.63 mm) and plotted as per mm^2. A series of Z-stack confocal images was obtained to obtain images covering the epidermis and capturing GFP/YFP signal from the reporter lines. The area and the number of epidermal cells were quantified by using FIJI-ImageJ. Statistical analyses were performed using R ver. 4.0.2. Sample sizes (n) are indicated and defined in each legend. For the multiple sample comparison, 1-way ANOVA was performed followed by a post hoc Tukey HSD test. For the two-sample comparison, Student’s T-test was performed. Graphs were generated using R ggplot2 package. For all boxplots, each box represents IQR (interquartile range), in which top, middle line, and bottom indicating 75, 50, and 25 percentiles, respectively, and the bar representing maximum to minimal values. Each magenta dot represents jittered individual data point. The datapoints that go beyond the bar are outliers, which are indicated as black dots. If the data point is greater than Q3 + 1.5*IQR (above the third quartile is greater than 1.5 times of the interquartile range) or less than Q1 − 1.5*IQR, that data point is classified as outlier. The color of Boxplot graph was based on ColorBrewer.org. The value of n, the number of each experiment or samples, the means of error bars, and how statistical significance was defined are indicated in a relevant figure legend. See Source Data for quantitative data underlying each figure.

SMILES: O=C1C(c2ccccc2)=NC(NS(=O)(=O)c2ccccc2)(c2ccccc2)N1S(=O)(=O)c1ccccc1 (centres unmarked) [Stomidazolone]
- stability in 1/2 MS liquid medium (LC/MS) ([1]; pH 5.7, room temperature, 48 hours): no lzx103 peak (2.13 min) was detected
- stability in phosphate buffer (LC/MS) ([1]; pH 7.0, room temperature, 48 h): did not detect the degradation
- MI (%) meristemoid index ([2]; 20 uM): 2.39% and 0% and 2.612% and 2.336% and 2.778% and 1.339% and 0.4219% and 0.7905%
- SI (%) stomatal index ([2]; 20 uM): 22.3108% and 29.661% and 27.2388% and 24.7664% and 32.1429% and 24.5536% and 35.443% and 19.7628%
- MI (%) meristemoid index ([2]; 50 uM): 0% and 2.954% and 0.8658% and 1.852% and 0.4878% and 0.5208% and 2.991%
- SI (%) stomatal index ([2]; 50 uM): 27.027% and 21.097% and 20.3463% and 25.9259% and 27.9412% and 25.8537% and 27.6042% and 20.9402%
- MI (%) meristemoid index ([2]; 100 uM): 2.4% and 0.7812% and 3.364% and 2.326% and 0.4717% and 8.069% and 4.2623% and 3.509%
- SI (%) stomatal index ([2]; 100 uM): 20.4% and 25% and 12.844% and 16.2791% and 24.0566% and 14.9856% and 17.377% and 15.4386%
- effect on seedling growth ([2]; solid media, 100 μM (Supplementary Fig. 2d)): subtle growth retardation
- effect on stomatal differentiation (in words) ([2]; solid media, 20, 50, 100 μM (Supplementary Fig. 2a-c)): inhibited stomatal differentiation in a dose-dependent manner
- effect on seedling morphology / growth ([2]; solid media, 20 and 50 μM (Supplementary Fig. 2d)): does not impact; also recorded: does not affect growth
